These results are taken from US7718680B2 (priority 2004, dated 2010).

The target of experiment [1] is T1, Lethal Factor (LF) protease of anthrax toxin (Bacillus anthracis, UniProt P15917). The experiment can be described thus: biochemical.
Experiment [2] concerns the target T1, Lethal Factor (LF) protease of anthrax toxin. Nature of the experiment: biochemical. The source holds these as a separate data set.
Another experiment relates to macrophages. It counts as cell-based.

What is called Ki is a dissociation constant, usually derived from enzyme kinetics or from competition with a known ligand. Low values mean higher affinity, high ones lower affinity. What is called IC50 is the concentration needed to halve the response being measured. As usually defined, the inhibition is the percentage by which the read-out fell short of the control.

Structures are written as SMILES. Read-outs that look alike come from different tables or passages of the source.

T1 sequence (P15917 34-809 limits assumed): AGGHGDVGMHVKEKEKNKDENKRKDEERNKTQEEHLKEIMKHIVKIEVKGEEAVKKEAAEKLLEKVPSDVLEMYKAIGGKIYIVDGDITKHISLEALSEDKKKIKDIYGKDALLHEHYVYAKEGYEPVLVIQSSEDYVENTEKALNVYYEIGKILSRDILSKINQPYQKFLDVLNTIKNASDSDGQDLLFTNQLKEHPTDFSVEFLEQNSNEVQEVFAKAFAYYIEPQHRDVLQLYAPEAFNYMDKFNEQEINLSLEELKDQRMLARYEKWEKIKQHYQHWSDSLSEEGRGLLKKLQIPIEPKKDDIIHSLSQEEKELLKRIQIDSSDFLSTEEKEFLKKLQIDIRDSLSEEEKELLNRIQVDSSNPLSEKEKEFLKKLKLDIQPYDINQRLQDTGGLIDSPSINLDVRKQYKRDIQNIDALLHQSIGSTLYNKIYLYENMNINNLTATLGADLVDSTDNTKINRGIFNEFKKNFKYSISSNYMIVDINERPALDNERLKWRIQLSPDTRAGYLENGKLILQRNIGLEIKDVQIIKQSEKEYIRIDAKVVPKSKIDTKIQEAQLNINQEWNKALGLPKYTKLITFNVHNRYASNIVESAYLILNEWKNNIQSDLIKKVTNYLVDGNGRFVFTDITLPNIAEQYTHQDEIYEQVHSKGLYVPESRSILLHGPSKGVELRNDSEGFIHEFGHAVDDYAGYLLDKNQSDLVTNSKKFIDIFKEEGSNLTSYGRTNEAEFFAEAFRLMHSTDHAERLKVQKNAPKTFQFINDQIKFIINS

As for `O=C(O)CN1C(=O)/C(=C/c2ccc(-c3cc(C(F)(F)F)ccc3Cl)o2)SC1=S` [BI-11B3], in experiment [1], the Ki is 0.032 µM and the “pIC50 Obs” value amounted to 6.71. Moreover, the half-inhibitory concentration (IC50) in experiment [1] (read-out: IC50) stood at 0.195 µM. The “LF activity / cleavage of fluorinated peptide seen by 19F NMR” value (shortened to “LF activity / cleavage”) in experiment [2] is “potent LF inhibition”. Moreover, the “potency relative to GM6001” value with macrophages came out at 100 fold.

For `COc1ccc(-c2cnc(/C=C3\SC(=S)N(CC(=O)O)C3=O)s2)cc1OC` [BI-11D6], the “pIC50 Obs” value in experiment [1] is reported as 5.30. Besides, the IC50 in experiment [1] (read-out: IC50) was determined as 5 µM.

For the molecule `O=C(O)CN1C(=O)/C(=C/c2ncc(-c3ccc(Br)cc3)s2)SC1=S` [BI-11E4], the “pIC50 Obs” value in experiment [1] is on record as 5.36. The IC50 in experiment [1] (read-out: IC50) worked out at 4.4 µM.

Take `O=C(O)CN1C(=O)/C(=C/c2ccc(-c3cccs3)s2)SC1=S` [BI-11D3]: the “pIC50 Obs” value in experiment [1] is on record as 5.64.

For `O=C(O)CN1C(=O)/C(=C/c2ccc(-c3ccc(Br)cc3)o2)SC1=S` [BI-11A10], the “pIC50 Obs” value in experiment [1] amounted to 6.07. The IC50 in experiment [1] (read-out: IC50) turned out to be 0.85 µM.

On to `O=C(O)CN1C(=O)/C(=C/c2ccc(-c3ccc(Cl)cc3)o2)SC1=S` [BI-11A9], for which the “pIC50 Obs” value in experiment [1] came to 6.05. The IC50 in experiment [1] (read-out: IC50) was found to be 0.9 µM.

`C=CCN1C(=O)/C(=C/c2ccc(-c3ccc(F)cc3)o2)SC1=S` [Compound 3]: the IC50 in experiment [1] (read-out: IC50) is 50 µM.

As to `CN1C(=N)NC(=O)/C1=C\c1ccc(-c2ccc(Cl)cc2)o1` [BI-11C5], the “pIC50 Obs” value in experiment [1] was 3.70. Also, the IC50 in experiment [1] (read-out: IC50) was 200 µM.

On to `O=C1/C(=C/c2ccc(-c3ccc(Cl)cc3)o2)SC(=S)N1Cc1ccco1` [Compound 2], for which, in experiment [1] (read-out: IC50), the IC50 worked out at 150 µM.

In experiment [1], `O=C(O)CN1C(=O)S/C(=C\c2ccc(/C=C3\SC(=S)N(CC(=O)O)C3=O)s2)C1=O` [BI-11E2] gave an IC50 of 1.58 µM.

As for `O=C1NC(=S)S/C1=C\c1ccc(-c2ccc(Br)c(Cl)c2)o1` [Compound 14], the IC50 in experiment [1] (read-out: IC50) was found to be 7 µM. Besides, the inhibition at 10 µM in experiment [1] (read-out: LF inhibition) is over 70%.

In the case of `O=C(O)CN1C(=O)/C(=C/c2ccco2)SC1=S` [BI-9B9b], in experiment [1], the “pIC50 Obs” value is reported as 3.85. The IC50 in experiment [1] (read-out: IC50) was found to be 140 µM. In addition, the inhibition at 140 µM in experiment [1] (read-out: LF inhibition) and in experiment [2] (read-out: LF inhibition) was 50% throughout.

Consider `NS(=O)(=O)c1ccc(-c2ccc(/C=C3\SC(=S)N(CC(=O)O)C3=O)o2)cc1` [Compound 12], for which, in experiment [1] (read-out: IC50), the IC50 came to 9.1 µM.

As to `O=C(O)CN1C(=O)/C(=C/c2ccc(-c3ccc(Cl)c(Cl)c3)o2)SC1=S` [BI-11B2], the “pIC50 Obs” value in experiment [1] is 6.58. The IC50 in experiment [1] (read-out: IC50) worked out at 0.265 µM. Also, in the experiment on macrophages, the “potency relative to GM6001” value turned out to be 100 fold.

Consider `O=C(O)CN1C(=O)/C(=C/c2ccc(-c3ccc(I)cc3)o2)SC1=S` [Compound 16], for which, in experiment [1] (read-out: IC50), the IC50 was 5.5 µM. In addition, the inhibition at 10 µM in experiment [1] (read-out: LF inhibition) is over 70%.

`O=C(O)CN1C(=O)/C(=C/c2ccc(-c3cc(C(F)(F)F)ccc3Cl)o2)SC1=S` [BI-11D9] registered an IC50 in experiment [1] of 5.9 µM.

Consider `CN1C(NC(=O)O)=NC(=O)/C1=C\c1ccc(-c2ccc(Cl)cc2)o1` [BI-11C11], for which, in experiment [1], the IC50 is over 100 µM and the “pIC50 Obs” value was over 4.

With `O=C(O)CN1C(=O)S/C(=C\c2ccc(-c3ccc(Cl)c(Cl)c3)o2)C1=O` [BI-11D8], the “pIC50 Obs” value in experiment [1] was 5.25. In experiment [1] (read-out: IC50), the IC50 amounted to 5.6 µM.

In the case of `O=C1/C(=C/c2ccc(-c3ccccc3[N+](=O)[O-])o2)SC(=S)N1CCc1ccccc1` [Compound 6], in experiment [1] (read-out: IC50), the IC50 was determined as 31.9 µM.

For `O=C(O)CN1C(=O)/C(=C/c2ccc(-c3ccccc3)s2)SC1=S` [BI-11B10], the “pIC50 Obs” value in experiment [1] worked out at 6.13. In addition, the IC50 in experiment [1] (read-out: IC50) came out at 0.74 µM.

Regarding `O=C(O)CN1C(=O)/C(=C/c2cccs2)SC1=S` [BI-11D1], the “pIC50 Obs” value in experiment [1] is recorded as 4.10. Moreover, in experiment [1] (read-out: IC50), the IC50 is 79.4 µM.

Regarding `COc1ccc(-c2ccc(C=C3C(=O)NC(=S)NC3=O)o2)cc1Cl` [BI-11C1], in experiment [1], the “pIC50 Obs” value was determined as 5.52. For the same molecule, in experiment [1] (read-out: IC50), the IC50 stood at 3 µM.

With `C=CCN1C(=O)/C(=C/c2ccc(-c3ccc(C(=O)O)c(Cl)c3)o2)SC1=S` [Compound 20], the IC50 in experiment [1] (read-out: IC50) was found to be 2.7 µM.

Consider `O=C1NC(=S)NC(=O)C1=Cc1ccc(-c2ccccc2)s1` [BI-11C4], for which the “pIC50 Obs” value in experiment [1] came out at 5.92. In addition, in experiment [1] (read-out: IC50), the IC50 was determined as 1.2 µM.

Turning to `O=C(O)CCCN1C(=O)/C(=C/c2ccc(-c3ccc(Br)cc3)o2)SC1=S` [Compound 21], the IC50 in experiment [1] (read-out: IC50) amounted to 2.3 µM.

As for `O=C1NC(=S)NC(=O)C1=Cc1ccc(-c2ccc(Cl)c(Cl)c2)o1` [BI-11C3], in experiment [1], the “pIC50 Obs” value came to 5.68. Besides, the half-maximal inhibitory concentration (IC50) in experiment [1] (read-out: IC50) amounted to 2.1 µM.

As to `O=C(O)c1ccc(-c2ccc(/C=C3\SC(=S)N(Cc4cccnc4)C3=O)o2)cc1Cl` [Compound 11], the concentration for half-maximal inhibition (IC50) in experiment [1] (read-out: IC50) turned out to be 9.9 µM.

Take `O=C(O)CN1C(=O)/C(=C/c2ccc(-c3ccc(Cl)cc3)s2)SC1=S` [BI-11D10]: the “pIC50 Obs” value in experiment [1] came to 5.49. Further, the IC50 in experiment [1] (read-out: IC50) turned out to be 3.2 µM.

Consider `CNC(=O)[C@H](Cc1c[nH]c2ccccc12)NC(=O)[C@@H](CC(=O)NO)CC(C)C` [GM6001, reference compound], for which the “LF activity / cleavage” value in experiment [2] was “reduced by approximately half”.

As for `O=C1NC(=S)NC(=O)C1=Cc1ccc(-c2cc(C(F)(F)F)ccc2Cl)o1` [BI-11C2], the “pIC50 Obs” value in experiment [1] was 5.89. Further, the half-inhibitory concentration (IC50) in experiment [1] (read-out: IC50) was found to be 1.3 µM.

For the molecule `O=C(O)CN1C(=O)/C(=C/c2nccs2)SC1=S` [BI-11D2], the “pIC50 Obs” value in experiment [1] was 4.14. In addition, the IC50 in experiment [1] (read-out: IC50) was determined as 72.4 µM.

As to `CN1C(=N)NC(=O)/C1=C\c1ccc(-c2cc(C(F)(F)F)ccc2Cl)o1` [BI-11B11], the “pIC50 Obs” value in experiment [1] is reported as 4.

On to `O=C(O)CN1C(=O)/C(=C/c2ccc(-c3ccc(Cl)cc3[N+](=O)[O-])o2)SC1=S` [BI-11A11], for which the “pIC50 Obs” value in experiment [1] is recorded as 6.30. Moreover, the IC50 in experiment [1] (read-out: IC50) is 0.5 µM.

`O=C(O)CN1C(=O)/C(=C/c2ncc(-c3ccc(Cl)cc3)s2)SC1=S` [BI-11D5]: the “pIC50 Obs” value in experiment [1] is 5.00. Besides, in experiment [1] (read-out: IC50), the IC50 turned out to be 10 µM.

As to `O=C(O)CN1C(=O)/C(=C/c2ncc(-c3ccc(F)cc3)s2)SC1=S` [BI-11E3], the “pIC50 Obs” value in experiment [1] is 4.65. Besides, in experiment [1] (read-out: IC50), the half-maximal inhibitory concentration (IC50) was 22.4 µM.

With `O=C1NC(=S)NC(=O)C1=Cc1ccc(-c2ccc(Cl)cc2)o1` [BI-11B12], the “pIC50 Obs” value in experiment [1] was 5.36. In experiment [1] (read-out: IC50), the IC50 stood at 4.4 µM.

Turning to `O=C(O)CN1C(=O)/C(=C/c2ccc(-c3ccccc3)o2)SC1=S` [BI-11C12], in experiment [1], the “pIC50 Obs” value is 4.78. In addition, in experiment [1] (read-out: IC50), the IC50 turned out to be 16.6 µM.

As to `O=C(O)CCN1C(=O)/C(=C/c2ccc(-c3ccc(Cl)cc3)o2)SC1=S` [BI-MFM3], in experiment [1], the Ki amounted to 0.8 ± 0.3 µM, the “effect on the Vmax” value is “no effect”, the “pIC50 Obs” value worked out at 5.77 and the type of inhibition entry is “competitive”. Besides, the IC50 in experiment [1] (read-out: IC50) worked out at 1.7 µM. Besides, the inhibition at 10 µM in experiment [1] (read-out: LF inhibition) was over 70%. Moreover, in experiment [2], the “LF activity / cleavage” value is on record as “Only the ^19F NMR signal relative to uncleaved peptide appears” and the “inhibitory activity relative to GM6001” value is recorded as “about twice as strong as GM6001”.

Take `O=C1NC(=S)S/C1=C\c1ccc(-c2ccc(Cl)c(Cl)c2)o1` [Compound 13]: the IC50 in experiment [1] (read-out: IC50) came out at 7.4 µM. Also, the inhibition at 10 µM in experiment [1] (read-out: LF inhibition) is over 70%.
